Assay results published in PubChem BioAssay AID330 (DTP/NCI, 2004).
Several values for one entry are separate records, joined by “and”; a condition that tells them apart may be missing. Identical values can stand only once. Toxic doses and inconclusive results are not listed.

System: P388 leukemia ip, CD2F1 mice, survival T/C
Test: NCI In Vivo Anticancer Drug Screen. Data for tumor model P388 Leukemia (intraperitoneal) in CD2F1 (CDF1) mice
Details: endpoint: median survival time, higher = longer survival
Summary of the method: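 Mice carrying the transplanted tumor received test compound or vehicle. Survival was recorded in each group, and the value is the treated-group measurement divided by that of the vehicle-treated control group.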

[1] = dose: 50.0 mg/kg/injection, schedule: Q01DX009 (ip), vehicle: saline with Tween-80
[2] = dose: 100.0 mg/kg/injection, schedule: Q01DX009 (ip), vehicle: saline with Tween-80
[3] = dose: 200.0 mg/kg/injection, schedule: Q01DX009 (ip), vehicle: saline with Tween-80
[4] = dose: 100.0 mg/kg/injection, schedule: Q04DX003 (ip), vehicle: saline
[5] = dose: 200.0 mg/kg/injection, schedule: Q04DX003 (ip), vehicle: saline
[6] = dose: 400.0 mg/kg/injection, schedule: Q04DX003 (ip), vehicle: saline
[7] = dose: 60.0 mg/kg/injection, schedule: Q01DX005 (ip), vehicle: saline with Tween-80
[8] = dose: 120.0 mg/kg/injection, schedule: Q01DX005 (ip), vehicle: saline with Tween-80
[9] = dose: 240.0 mg/kg/injection, schedule: Q01DX005 (ip), vehicle: saline with Tween-80
[10] = dose: 50.0 mg/kg/injection, schedule: Q01DX009 (ip), vehicle: saline
[11] = dose: 100.0 mg/kg/injection, schedule: Q01DX009 (ip), vehicle: saline
[12] = dose: 200.0 mg/kg/injection, schedule: Q01DX009 (ip), vehicle: saline

CCC1=C(NCc2ccccc2)COC1=O
T/C (dose: 50.0 mg/kg/injection, schedule: Q01DX001 (ip), vehicle: Klucel (hydroxypropylcellulose) (HPC)): 100 % of control
T/C (dose: 100.0 mg/kg/injection, schedule: Q01DX001 (ip), vehicle: Klucel (hydroxypropylcellulose) (HPC)): 101 % of control
T/C (dose: 200.0 mg/kg/injection, schedule: Q01DX001 (ip), vehicle: Klucel (hydroxypropylcellulose) (HPC)): 100 % of control

O=c1c2ncn(C3OC(CO)C(O)C3O)c2nc2n(C3OC(CO)C(O)C3O)cnn12 (configuration not stated)
T/C (dose: 60.0 mg/kg/injection, schedule: Q01DX005 (ip), vehicle: saline): 109 % of control
T/C (dose: 120.0 mg/kg/injection, schedule: Q01DX005 (ip), vehicle: saline): 117 % of control
T/C (dose: 240.0 mg/kg/injection, schedule: Q01DX005 (ip), vehicle: saline): 122 % of control

CC/C(C)=N/SC(c1ccccc1)(c1ccccc1)c1ccccc1
T/C (dose: 100.0 mg/kg/injection, schedule: Q04DX002 (ip), vehicle: saline with Tween-80): 101 % of control
T/C (dose: 200.0 mg/kg/injection, schedule: Q04DX002 (ip), vehicle: saline with Tween-80): 91 % of control
T/C (dose: 400.0 mg/kg/injection, schedule: Q04DX002 (ip), vehicle: saline with Tween-80): 89 % of control

CCCCOc1ccc(C(=O)N/N=C(\C)[C@]2(O)Cc3c(O)c4c(c(O)c3[C@@H](OC3CC(N)C(O)C(C)O3)C2)C(=O)c2c(OC)cccc2C4=O)cc1 (some centres not stated)
T/C (dose: 0.12 mg/kg/injection, schedule: Q01DX009 (ip), vehicle: water): 115 % of control
T/C (dose: 0.5 mg/kg/injection, schedule: Q01DX009 (ip), vehicle: water): 150 % of control and 151 % of control
T/C (dose: 1.0 mg/kg/injection, schedule: Q01DX009 (ip), vehicle: water): 152 % of control and 160 % of control
T/C (dose: 2.0 mg/kg/injection, schedule: Q01DX009 (ip), vehicle: water): 160 % of control and 179 % of control
T/C (dose: 5.0 mg/kg/injection, schedule: Q01DX001 (ip), vehicle: water): 153 % of control
T/C (dose: 20.0 mg/kg/injection, schedule: Q01DX001 (ip), vehicle: water): 106 % of control

O=C(c1ccccc1)C(O)NC(=S)c1cccnc1 (configuration not stated)
T/C [1]: 106 % of control
T/C [2]: 107 % of control
T/C [3]: 116 % of control

NS(=O)(=O)c1cc([N+](=O)[O-])sc1SSc1sc([N+](=O)[O-])cc1S(N)(=O)=O
T/C (dose: 6.25 mg/kg/injection, schedule: Q01DX001 (ip), vehicle: saline with Tween-80): 99 % of control
T/C (dose: 12.5 mg/kg/injection, schedule: Q01DX001 (ip), vehicle: saline with Tween-80): 104 % of control
T/C (dose: 25.0 mg/kg/injection, schedule: Q01DX001 (ip), vehicle: saline with Tween-80): 100 % of control

COc1ccc2cc1Oc1ccc(cc1)C[C@H]1c3c(cc(OC)c(O)c3Oc3cc4c(cc3OC)CCN(C)[C@@H]4C2)CCN1C
T/C (dose: 25.0 mg/kg/injection, schedule: Q01DX001 (ip), vehicle: saline): 101 % of control
T/C (dose: 50.0 mg/kg/injection, schedule: Q01DX001 (ip), vehicle: saline): 106 % of control
T/C (dose: 100.0 mg/kg/injection, schedule: Q01DX001 (ip), vehicle: saline): 106 % of control
T/C (dose: 200.0 mg/kg/injection, schedule: Q01DX001 (ip), vehicle: saline): 100 % of control

CC1(C)C(O)C(C)(C)C1O (configuration not stated)
T/C (dose: 12.5 mg/kg/injection, schedule: Q01DX009 (ip), vehicle: saline with Tween-80): 100 % of control
T/C (dose: 25.0 mg/kg/injection, schedule: Q01DX009 (ip), vehicle: saline with Tween-80): 100 % of control
T/C [1]: 100 % of control

CC(=O)C1CC(CC(=O)O)C1(C)C (configuration not stated)
T/C (dose: 25.0 mg/kg/injection, schedule: Q01DX009 (ip), vehicle: Klucel (hydroxypropylcellulose) (HPC)): 96 % of control
T/C (dose: 50.0 mg/kg/injection, schedule: Q01DX009 (ip), vehicle: Klucel (hydroxypropylcellulose) (HPC)): 108 % of control and 92 % of control
T/C (dose: 100.0 mg/kg/injection, schedule: Q01DX009 (ip), vehicle: Klucel (hydroxypropylcellulose) (HPC)): 96 % of control and 97 % of control
T/C (dose: 200.0 mg/kg/injection, schedule: Q01DX009 (ip), vehicle: Klucel (hydroxypropylcellulose) (HPC)): 99 % of control and 100 % of control
T/C (dose: 400.0 mg/kg/injection, schedule: Q01DX009 (ip), vehicle: Klucel (hydroxypropylcellulose) (HPC)): 100 % of control

CCC1CC(C)C(=O)NC1=O (configuration not stated)
T/C (dose: 12.5 mg/kg/injection, schedule: Q04DX003 (ip), vehicle: saline): 100 % of control
T/C (dose: 25.0 mg/kg/injection, schedule: Q04DX003 (ip), vehicle: saline): 100 % of control
T/C (dose: 50.0 mg/kg/injection, schedule: Q04DX003 (ip), vehicle: saline): 109 % of control

Nc1ccc(S(=O)(=O)c2ccc(NCNc3ccc(S(=O)(=O)c4ccc(N)cc4)cc3)cc2)cc1
T/C [2]: 94 % of control
T/C [3]: 91 % of control
T/C (dose: 400.0 mg/kg/injection, schedule: Q01DX009 (ip), vehicle: saline with Tween-80): 94 % of control

c1ccc(P23(Oc4ccccc4S2)Oc2ccccc2S3)cc1
T/C (dose: 100.0 mg/kg/injection, schedule: Q04DX003 (ip), vehicle: Klucel (hydroxypropylcellulose) (HPC)): 93 % of control
T/C (dose: 200.0 mg/kg/injection, schedule: Q04DX003 (ip), vehicle: Klucel (hydroxypropylcellulose) (HPC)): 90 % of control
T/C (dose: 400.0 mg/kg/injection, schedule: Q04DX003 (ip), vehicle: Klucel (hydroxypropylcellulose) (HPC)): 91 % of control

CCC1(C)COC(=O)C1=C(C(=O)OC)C(=O)OC (configuration not stated)
T/C [4]: 112 % of control
T/C [5]: 113 % of control
T/C [6]: 105 % of control

Cc1ccc2c(c1)C(=O)c1cc3c(cc1C2=O)OCO3
T/C [7]: 87 % of control
T/C [8]: 91 % of control
T/C [9]: 89 % of control and 91 % of control

NC(=O)c1cc2c(oc1=O)-c1ccccc1OC2
T/C [7]: 98 % of control
T/C [8]: 95 % of control
T/C [9]: 95 % of control

CN(C)C1=CC(=O)c2ccccc2C12CO2 (configuration not stated)
T/C (dose: 100.0 mg/kg/injection, schedule: Q01DX001 (ip), vehicle: saline with Tween-80): 106 % of control
T/C (dose: 200.0 mg/kg/injection, schedule: Q01DX001 (ip), vehicle: saline with Tween-80): 100 % of control

C[N+]1(CC(=O)O)C2CCC1CC(O)C2 (configuration not stated)
T/C (dose: 25.0 mg/kg/injection, schedule: Q01DX009 (ip), vehicle: saline): 108 % of control
T/C [10]: 98 % of control and 100 % of control
T/C [11]: 101 % of control
T/C [12]: 101 % of control and 96 % of control

COC(=O)N1CCc2c([nH]oc2=O)C1
T/C [10]: 90 % of control
T/C [11]: 88 % of control
T/C [12]: 89 % of control

COc1cc(Br)c(C(=O)N2CCc3ccccc32)cc1OC
T/C (dose: 12.5 mg/kg/injection, schedule: Q01DX009 (ip), vehicle: other): 93 % of control
T/C (dose: 25.0 mg/kg/injection, schedule: Q01DX009 (ip), vehicle: other): 90 % of control

COc1ccc2c3c([nH]c2c1)[C@H]1C[C@H]2[C@H](C[C@@H](O)[C@H](OC)[C@H]2CO)CN1CC3
T/C (dose: 50.0 mg/kg/injection, schedule: Q01DX005 (ip), vehicle: Klucel (hydroxypropylcellulose) (HPC)): 104 % of control
T/C (dose: 100.0 mg/kg/injection, schedule: Q01DX005 (ip), vehicle: Klucel (hydroxypropylcellulose) (HPC)): 95 % of control
T/C (dose: 200.0 mg/kg/injection, schedule: Q01DX005 (ip), vehicle: Klucel (hydroxypropylcellulose) (HPC)): 90 % of control

C/C(N)=C\C#N
T/C (dose: 25.0 mg/kg/injection, schedule: Q04DX003 (ip), vehicle: saline with Tween-80): 100 % of control
T/C (dose: 50.0 mg/kg/injection, schedule: Q04DX003 (ip), vehicle: saline with Tween-80): 101 % of control
T/C (dose: 100.0 mg/kg/injection, schedule: Q04DX003 (ip), vehicle: saline with Tween-80): 98 % of control and 97 % of control

COC(=O)c1c2cccc(C)c2nc2c(C)cccc12
T/C (dose: 50.0 mg/kg/injection, schedule: Q01DX005 (ip), vehicle: saline with Tween-80): 107 % of control
T/C (dose: 100.0 mg/kg/injection, schedule: Q01DX005 (ip), vehicle: saline with Tween-80): 107 % of control
T/C (dose: 200.0 mg/kg/injection, schedule: Q01DX005 (ip), vehicle: saline with Tween-80): 100 % of control

CCCCCCNCC(=O)OCC
T/C (dose: 50.0 mg/kg/injection, schedule: Q01DX005 (ip), vehicle: saline): 101 % of control
T/C (dose: 100.0 mg/kg/injection, schedule: Q01DX005 (ip), vehicle: saline): 106 % of control
T/C (dose: 200.0 mg/kg/injection, schedule: Q01DX005 (ip), vehicle: saline): 110 % of control

CCCCCCC[CH2][Sn]([Cl])([Cl])[Cl]
T/C [4]: 98 % of control
T/C [5]: 102 % of control
T/C [6]: 104 % of control

CCN(CC)C(=O)c1ccccc1-c1ccccc1C(=O)N(CC)CC
T/C [4]: 101 % of control
T/C [5]: 98 % of control
T/C [6]: 95 % of control

CCN(CC)CCn1ncc(Sc2cc([N+](=O)[O-])ccc2N)c(Cl)c1=O
T/C [7]: 100 % of control
T/C [8]: 89 % of control
